The target of the assay is WIL-FL (Homo sapiens, UniProt P01721). Briefly: Unlabeled LC Protease Sensitivity Assay (proteinase K). The format is biochemical. The settings on record: small molecule 10 μM, WIL-FL 5 μM, proteinase K 50 nM, 2 hours at 37° C. The method, boiled down:
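WIL-FL light chain (5 μM) in PBS pH 7.4 + 0.02% Pluronic F-127 digested with proteinase K (50 nM) for 2 h at 37 °C with 10 μM compound (1% DMSO). Intact WIL-FL quantified by size-exclusion UPLC (A280). Fold protection = (A_compound−A_vehicle)/(A_no_protease−A_vehicle) from peak areas.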
Consider `CCN(CC)c1ccc2c(C)c(CCN3CC4(CCN(c5ncccn5)CC4)NC3=O)c(=O)oc2c1` [Compound 221, 3-(2-(7-(diethylamino)-4-methyl-2-oxo-2H-chromen-3-yl)ethyl)-8-(pyrimidin-2-yl)-1,3,8-triazaspiro[4.5]decan-2-one], for which the “Protection (fold protection of LC from protease)” value is listed as “C (C ≥ 0.6)”.

Regarding `CCN(CC)c1ccc2c(C)c(CCN3CC4(CCN(c5ncnc6[nH]ncc56)CC4)NC3=O)c(=O)oc2c1` [Compound 222, 3-(2-(7-(diethylamino)-4-methyl-2-oxo-2H-chromen-3-yl)ethyl)-8-(1H-pyrazolo[3,4-d]pyrimidin-4-yl)-1,3,8-triazaspiro[4.5]decan-2-one], the “Protection (fold protection of LC from protease)” value is reported as “C (C ≥ 0.6)”.

Consider `CCN(CC)c1ccc2c(C)c(CCN3CC4(CCN(c5nccn6ccnc56)CC4)NC3=O)c(=O)oc2c1` [Compound 223, 3-(2-(7-(diethylamino)-4-methyl-2-oxo-2H-chromen-3-yl)ethyl)-8-(imidazo[1,2-a]pyrazin-8-yl)-1,3,8-triazaspiro[4.5]decan-2-one], for which the “Protection (fold protection of LC from protease)” value is reported as “C (C ≥ 0.6)”.

`Cc1cc(=O)oc2cc(C#N)ccc12` [Compound 224, 4-methyl-2-oxo-2H-chromene-7-carbonitrile]: the “Protection (fold protection of LC from protease)” value was “A (A < 0.3))”.

As for `Cc1cc(=O)oc2cc(C(=O)O)ccc12` [Compound 225, 4-methyl-2-oxo-2H-chromene-7-carboxylic acid], the “Protection (fold protection of LC from protease)” value is reported as “A (A < 0.3))”.

As for `Cc1cc(=O)oc2cc(C(=O)NCc3ccccn3)ccc12` [Compound 226, 4-methyl-2-oxo-N-(pyridin-2-ylmethyl)-2H-chromene-7-carboxamide], the “Protection (fold protection of LC from protease)” value is given as “A (A < 0.3))”.

Turning to `Cc1cc(=O)oc2cc(C(=O)Nc3ccc4ccccc4c3)ccc12` [Compound 227, 4-methyl-N-(naphthalen-2-yl)-2-oxo-2H-chromene-7-carboxamide], the “Protection (fold protection of LC from protease)” value is listed as “A (A < 0.3))”.

As to `Cc1cc(=O)oc2cc(C(=O)NCc3ccncc3)ccc12` [Compound 228, 4-methyl-2-oxo-N-(pyridin-4-ylmethyl)-2H-chromene-7-carboxamide], the “Protection (fold protection of LC from protease)” value is “A (A < 0.3))”.

On to `Cc1cc(=O)oc2cc(C(=O)Nc3cc(Cl)c(O)c(Cl)c3)ccc12` [Compound 229, N-(3,5-dichloro-4-hydroxyphenyl)-4-methyl-2-oxo-2H-chromene-7-carboxamide], for which the “Protection (fold protection of LC from protease)” value is listed as “A (A < 0.3))”.

With `Cc1cc(=O)oc2cc(C(=O)NCc3ccc(O)cc3)ccc12` [Compound 230, N-(4-hydroxybenzyl)-4-methyl-2-oxo-2H-chromene-7-carboxamide], the “Protection (fold protection of LC from protease)” value is recorded as “A (A < 0.3))”.

As for `C=CCN(CC=C)c1ccc2c(C)cc(=O)oc2c1` [Compound 231, 7-(diallylamino)-4-methyl-2H-chromen-2-one], the “Protection (fold protection of LC from protease)” value was “A (A < 0.3))”.

Take `Cc1cc(=O)oc2cc(C(=O)NCCc3ccc(O)cc3)ccc12` [Compound 232, N-(4-hydroxyphenethyl)-4-methyl-2-oxo-2H-chromene-7-carboxamide]: the “Protection (fold protection of LC from protease)” value is recorded as “A (A < 0.3))”.

For the molecule `Cc1cc(=O)oc2cc(C(=O)Nc3ccc4ccccc4n3)ccc12` [Compound 233, 4-methyl-2-oxo-N-(quinolin-2-yl)-2H-chromene-7-carboxamide], the “Protection (fold protection of LC from protease)” value is “A (A < 0.3))”.

Consider `Cc1cc(=O)oc2cc(C(=O)Nc3ccnc4ccccc34)ccc12` [Compound 234, 4-methyl-2-oxo-N-(quinolin-4-yl)-2H-chromene-7-carboxamide], for which the “Protection (fold protection of LC from protease)” value is “A (A < 0.3))”.

With `Cc1cc(=O)oc2cc(C(=O)Nc3ccc4ncccc4c3)ccc12` [Compound 235, 4-methyl-2-oxo-N-(quinolin-6-yl)-2H-chromene-7-carboxamide], the “Protection (fold protection of LC from protease)” value is “A (A < 0.3))”.

With `Cc1cc(=O)oc2cc(C(=O)NCc3c[nH]c4ccccc34)ccc12` [Compound 236, N-((1H-indol-3-yl)methyl)-4-methyl-2-oxo-2H-chromene-7-carboxamide], the “Protection (fold protection of LC from protease)” value is reported as “A (A < 0.3))”.

As for `Cc1cc(=O)oc2cc(C(=O)NCc3ccc4[nH]ccc4c3)ccc12` [Compound 237, N-((1H-indol-5-yl)methyl)-4-methyl-2-oxo-2H-chromene-7-carboxamide], the “Protection (fold protection of LC from protease)” value is “A (A < 0.3))”.

`Cc1cc(=O)oc2cc(C(=O)Nc3ccc4[nH]cnc4c3)ccc12` [Compound 238, N-(1H-benzo[d]imidazol-6-yl)-4-methyl-2-oxo-2H-chromene-7-carboxamide]: the “Protection (fold protection of LC from protease)” value was “A (A < 0.3))”.

On to `Cc1cc(=O)oc2cc(C(=O)Nc3ccc4scnc4c3)ccc12` [Compound 239, N-(benzo[d]thiazol-5-yl)-4-methyl-2-oxo-2H-chromene-7-carboxamide], for which the “Protection (fold protection of LC from protease)” value is “A (A < 0.3))”.

In the case of `C=CCNc1ccc2c(C)cc(=O)oc2c1` [Compound 240, 7-(allylamino)-4-methyl-2H-chromen-2-one], the “Protection (fold protection of LC from protease)” value is “A (A < 0.3))”.

For the molecule `CCCN(CCC)c1ccc2c(C)cc(=O)oc2c1` [Compound 241, 7-(dipropylamino)-4-methyl-2H-chromen-2-one], the “Protection (fold protection of LC from protease)” value is “A (A < 0.3))”.

As for `CCCNc1ccc2c(C)cc(=O)oc2c1` [Compound 242, 4-methyl-7-(propylamino)-2H-chromen-2-one], the “Protection (fold protection of LC from protease)” value is listed as “A (A < 0.3))”.

Consider `C=C(C)CN(CC(=C)C)c1ccc2c(C)cc(=O)oc2c1` [Compound 243, 7-(bis(2-methylallyl)amino)-4-methyl-2H-chromen-2-one], for which the “Protection (fold protection of LC from protease)” value is given as “A (A < 0.3))”.

For `C=C(C)CNc1ccc2c(C)cc(=O)oc2c1` [Compound 244, 4-methyl-7-((2-methylallyl)amino)-2H-chromen-2-one], the “Protection (fold protection of LC from protease)” value is “A (A < 0.3))”.

Regarding `Cc1cc(=O)oc2cc(N(CC3CC3)CC3CC3)ccc12` [Compound 245, 7-(bis(cyclopropylmethyl)amino)-4-methyl-2H-chromen-2-one], the “Protection (fold protection of LC from protease)” value was “A (A < 0.3))”.

Turning to `Cc1cc(=O)oc2cc(NCC3CC3)ccc12` [Compound 246, 7-((cyclopropylmethyl)amino)-4-methyl-2H-chromen-2-one], the “Protection (fold protection of LC from protease)” value is “A (A < 0.3))”.

`C=CCCNc1ccc2c(C)cc(=O)oc2c1` [Compound 247, 7-(but-3-en-1-ylamino)-4-methyl-2H-chromen-2-one]: the “Protection (fold protection of LC from protease)” value is “A (A < 0.3))”.

Take `C#CCN(CC#C)c1ccc2c(C)cc(=O)oc2c1` [Compound 248, 7-(di(prop-2-yn-1-yl)amino)-4-methyl-2H-chromen-2-one]: the “Protection (fold protection of LC from protease)” value was “B (3 ≤ B < 0.6)”.

In the case of `C#CCNc1ccc2c(C)cc(=O)oc2c1` [Compound 249, 4-methyl-7-(prop-2-yn-1-ylamino)-2H-chromen-2-one], the “Protection (fold protection of LC from protease)” value is recorded as “A (A < 0.3))”.

In the case of `Cc1cc(=O)oc2cc(N(CCCF)CCCF)ccc12` [Compound 250, 7-(bis(3-fluoropropyl)amino)-4-methyl-2H-chromen-2-one], the “Protection (fold protection of LC from protease)” value is “A (A < 0.3))”.

Take `Cc1cc(=O)oc2cc(NCCCF)ccc12` [Compound 251, 7-((3-fluoropropyl)amino)-4-methyl-2H-chromen-2-one]: the “Protection (fold protection of LC from protease)” value is “A (A < 0.3))”.

In the case of `C=CCN(C)c1ccc2c(C)cc(=O)oc2c1` [Compound 252, 7-(allyl(methyl)amino)-4-methyl-2H-chromen-2-one], the “Protection (fold protection of LC from protease)” value is reported as “A (A < 0.3))”.

`CCCN(C)c1ccc2c(C)cc(=O)oc2c1` [Compound 253, 4-methyl-7-(methyl(propyl)amino)-2H-chromen-2-one]: the “Protection (fold protection of LC from protease)” value was “A (A < 0.3))”.

Take `C=C(C)CN(C)c1ccc2c(C)cc(=O)oc2c1` [Compound 254, 4-methyl-7-(methyl(2-methylallyl)amino)-2H-chromen-2-one]: the “Protection (fold protection of LC from protease)” value is reported as “A (A < 0.3))”.

Consider `Cc1cc(=O)oc2cc(N(C)CC3CC3)ccc12` [Compound 255, 7-((cyclopropylmethyl)(methyl)amino)-4-methyl-2H-chromen-2-one], for which the “Protection (fold protection of LC from protease)” value is given as “A (A < 0.3))”.

In the case of `C=CCCN(C)c1ccc2c(C)cc(=O)oc2c1` [Compound 256, 7-(but-3-en-1-yl(methyl)amino)-4-methyl-2H-chromen-2-one], the “Protection (fold protection of LC from protease)” value is “A (A < 0.3))”.

As for `C#CCN(C)c1ccc2c(C)cc(=O)oc2c1` [Compound 257, 4-methyl-7-(methyl(prop-2-yn-1-yl)amino)-2H-chromen-2-one], the “Protection (fold protection of LC from protease)” value is “A (A < 0.3))”.

With `Cc1cc(=O)oc2cc(N(C)CCCF)ccc12` [Compound 258, 7-((3-fluoropropyl)(methyl)amino)-4-methyl-2H-chromen-2-one], the “Protection (fold protection of LC from protease)” value was “A (A < 0.3))”.

On to `C#CCN(CC=C)c1ccc2c(C)cc(=O)oc2c1` [Compound 259, 7-(allyl(prop-2-yn-1-yl)amino)-4-methyl-2H-chromen-2-one], for which the “Protection (fold protection of LC from protease)” value is on record as “A (A < 0.3))”.

With `C#CCN(CCC)c1ccc2c(C)cc(=O)oc2c1` [Compound 260, 4-methyl-7-(prop-2-yn-1-yl(propyl)amino)-2H-chromen-2-one], the “Protection (fold protection of LC from protease)” value was “A (A < 0.3))”.

Regarding `C#CCN(CC(=C)C)c1ccc2c(C)cc(=O)oc2c1` [Compound 261, 4-methyl-7-((2-methylallyl)(prop-2-yn-1-yl)amino)-2H-chromen-2-one], the “Protection (fold protection of LC from protease)” value is on record as “A (A < 0.3))”.

Consider `C#CCN(CC1CC1)c1ccc2c(C)cc(=O)oc2c1` [Compound 262, 7-((cyclopropylmethyl)(prop-2-yn-1-yl)amino)-4-methyl-2H-chromen-2-one], for which the “Protection (fold protection of LC from protease)” value is “A (A < 0.3))”.

The values are drawn from patent US11945806B2, “Stabilization of amyloidogenic immunoglobulin light chains” (The Scripps Research Institute, priority 2019, dated 2024).
